Key:
hERG (KCNH2) = hERG (KCNH2) (Homo sapiens, UniProt Q12809); assay: Inhibition of CyB-tagged dofetilide binding to human ERG at 10 uM; details: probe CyB-tagged dofetilide
[1] = target: Macrophage colony-stimulating factor 1 receptor (Homo sapiens, UniProt P07333); assay: Inhibition of human CSF1R autophosphorylation expressed in HEK293 cells after 1 hr by ELISA
Sequence of Macrophage colony-stimulating factor 1 receptor (P07333 whole entry): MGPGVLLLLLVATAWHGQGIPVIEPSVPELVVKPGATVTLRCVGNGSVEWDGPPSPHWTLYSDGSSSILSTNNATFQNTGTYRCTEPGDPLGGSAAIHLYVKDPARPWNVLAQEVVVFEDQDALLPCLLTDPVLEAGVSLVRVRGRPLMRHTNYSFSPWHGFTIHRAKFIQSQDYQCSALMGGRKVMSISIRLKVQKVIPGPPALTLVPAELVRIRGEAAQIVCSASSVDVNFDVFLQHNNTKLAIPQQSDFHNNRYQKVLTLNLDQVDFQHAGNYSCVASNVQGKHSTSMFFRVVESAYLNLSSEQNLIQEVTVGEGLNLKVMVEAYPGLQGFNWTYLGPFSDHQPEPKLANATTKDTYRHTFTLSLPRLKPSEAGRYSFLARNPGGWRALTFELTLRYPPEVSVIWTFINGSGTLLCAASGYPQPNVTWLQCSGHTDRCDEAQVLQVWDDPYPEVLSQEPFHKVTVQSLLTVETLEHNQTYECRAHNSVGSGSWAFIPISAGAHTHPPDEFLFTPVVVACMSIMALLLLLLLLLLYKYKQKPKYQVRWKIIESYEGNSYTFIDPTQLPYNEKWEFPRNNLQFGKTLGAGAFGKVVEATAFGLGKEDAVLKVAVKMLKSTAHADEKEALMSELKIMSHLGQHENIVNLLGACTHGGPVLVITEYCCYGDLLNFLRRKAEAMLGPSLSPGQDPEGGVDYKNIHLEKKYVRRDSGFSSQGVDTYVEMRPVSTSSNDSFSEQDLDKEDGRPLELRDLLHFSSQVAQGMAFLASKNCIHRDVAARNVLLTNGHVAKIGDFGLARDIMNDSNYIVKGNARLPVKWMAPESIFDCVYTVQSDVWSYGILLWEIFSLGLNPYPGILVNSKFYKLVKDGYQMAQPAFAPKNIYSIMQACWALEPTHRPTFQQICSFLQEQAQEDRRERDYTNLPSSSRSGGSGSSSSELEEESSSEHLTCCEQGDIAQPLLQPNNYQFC

Sequence of hERG (KCNH2) (Q12809 whole entry): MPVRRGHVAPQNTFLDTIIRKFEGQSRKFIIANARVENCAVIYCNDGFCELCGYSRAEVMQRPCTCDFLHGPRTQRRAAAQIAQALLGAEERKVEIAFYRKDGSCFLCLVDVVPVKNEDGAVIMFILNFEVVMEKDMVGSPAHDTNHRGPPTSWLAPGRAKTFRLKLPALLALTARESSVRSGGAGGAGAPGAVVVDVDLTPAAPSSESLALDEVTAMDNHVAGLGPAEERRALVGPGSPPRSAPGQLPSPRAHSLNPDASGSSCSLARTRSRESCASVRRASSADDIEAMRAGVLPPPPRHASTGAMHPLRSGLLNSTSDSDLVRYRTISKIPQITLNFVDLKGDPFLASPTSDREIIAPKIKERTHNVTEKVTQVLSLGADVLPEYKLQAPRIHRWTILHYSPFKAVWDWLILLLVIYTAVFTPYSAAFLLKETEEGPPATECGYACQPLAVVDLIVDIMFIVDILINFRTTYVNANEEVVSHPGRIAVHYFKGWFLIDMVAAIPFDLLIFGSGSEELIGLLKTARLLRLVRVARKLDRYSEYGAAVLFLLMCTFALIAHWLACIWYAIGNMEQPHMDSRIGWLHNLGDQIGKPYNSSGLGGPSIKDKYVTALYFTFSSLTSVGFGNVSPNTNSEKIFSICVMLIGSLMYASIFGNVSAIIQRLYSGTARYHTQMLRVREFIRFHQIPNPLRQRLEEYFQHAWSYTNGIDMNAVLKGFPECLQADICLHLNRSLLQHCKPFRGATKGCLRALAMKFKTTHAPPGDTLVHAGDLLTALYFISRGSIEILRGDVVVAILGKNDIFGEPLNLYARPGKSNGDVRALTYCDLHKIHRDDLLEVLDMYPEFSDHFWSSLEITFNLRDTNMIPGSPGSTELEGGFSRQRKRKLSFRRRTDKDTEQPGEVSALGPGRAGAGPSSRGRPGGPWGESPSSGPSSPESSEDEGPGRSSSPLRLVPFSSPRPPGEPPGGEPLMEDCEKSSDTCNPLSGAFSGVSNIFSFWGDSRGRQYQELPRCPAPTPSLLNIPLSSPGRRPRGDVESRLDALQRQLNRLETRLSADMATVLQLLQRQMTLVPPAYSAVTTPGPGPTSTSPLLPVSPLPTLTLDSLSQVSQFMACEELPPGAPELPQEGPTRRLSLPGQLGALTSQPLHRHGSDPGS

Cn1cc(-c2cnc(N)c(OCc3c(Cl)cccc3Cl)n2)cn1
inhibition at 10 µM (hERG (KCNH2)): 7%

Nc1ncc(-c2ccc(C(=O)N3CCC[C@H]3CN3CCCC3)cc2)nc1NCc1c(Cl)cccc1Cl
inhibition at 10 µM (hERG (KCNH2)): 78%

Nc1ncc(-c2ccc(C(=O)N3CCC[C@H]3CN3CCCC3)cc2)nc1OCc1c(Cl)cccc1Cl
inhibition at 10 µM (hERG (KCNH2)): 91%

Cn1cc(-c2cnc(N)c(OCc3ccccc3Cl)n2)cn1
inhibition at 10 µM (hERG (KCNH2)): 7%

Cn1cc(-c2cnc(N)c(NCc3c(Cl)cccc3Cl)n2)cn1
inhibition at 10 µM (hERG (KCNH2)): 6%

COc1ccc(COc2ncc(Oc3nc(-c4cnn(C)c4)cnc3N)cc2OC)cc1
IC50 [1]: 12 nM
